SMILES strings stand for the structures. pIC50: −log10 of the molar value.

Assay [1] concerns the target T1, Endothelin-1 receptor (Rattus norvegicus, UniProt P26684).
T1 sequence (P26684 whole entry): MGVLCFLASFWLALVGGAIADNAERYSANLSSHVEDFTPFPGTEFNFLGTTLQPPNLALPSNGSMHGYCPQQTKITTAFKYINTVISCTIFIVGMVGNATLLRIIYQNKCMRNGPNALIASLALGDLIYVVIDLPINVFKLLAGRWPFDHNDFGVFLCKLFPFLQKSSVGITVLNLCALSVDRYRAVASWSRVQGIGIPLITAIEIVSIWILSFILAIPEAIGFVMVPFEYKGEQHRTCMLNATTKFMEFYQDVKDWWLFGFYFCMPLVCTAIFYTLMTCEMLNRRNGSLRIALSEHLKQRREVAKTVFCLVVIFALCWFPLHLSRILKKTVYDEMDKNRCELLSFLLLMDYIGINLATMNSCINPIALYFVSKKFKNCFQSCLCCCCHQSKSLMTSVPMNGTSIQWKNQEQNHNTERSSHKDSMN
The experiment in a line: In vitro binding affinity to endothelin A receptor in rat heart ventricles.

Assay [2] addresses T2, Endothelin receptor type B (Rattus norvegicus, UniProt P21451).
T2 sequence (P21451 whole entry): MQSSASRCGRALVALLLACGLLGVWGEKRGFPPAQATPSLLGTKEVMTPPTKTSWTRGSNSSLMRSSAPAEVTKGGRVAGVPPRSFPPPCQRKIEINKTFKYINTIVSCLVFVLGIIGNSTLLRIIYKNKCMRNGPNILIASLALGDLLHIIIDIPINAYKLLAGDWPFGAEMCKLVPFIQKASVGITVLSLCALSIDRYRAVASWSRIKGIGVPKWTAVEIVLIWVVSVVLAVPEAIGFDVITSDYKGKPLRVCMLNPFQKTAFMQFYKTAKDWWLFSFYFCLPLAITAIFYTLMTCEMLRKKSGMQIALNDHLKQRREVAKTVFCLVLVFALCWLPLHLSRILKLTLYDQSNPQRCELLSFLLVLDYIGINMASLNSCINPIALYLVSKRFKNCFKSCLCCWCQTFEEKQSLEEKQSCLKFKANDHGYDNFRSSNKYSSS
The experiment in a line: In vitro binding affinity to endothelin B receptor in rat cerebellum. In kind it is tissue-based.

Assay [3] relates to Endothelin receptor ET-A/ET-B (Rattus norvegicus). The experiment in a line: Ratio of ETA / ETB was determined; 1/7.
The test system is the same in assay [4]. The experiment in a line: Ratio of ETA / ETB was determined; 22/1.

Turning to `O=C(O)c1c(Cc2cc3c(cc2Cl)OCO3)c(-c2ccccc2)nn1Cc1cccc(Cl)c1`, the pIC50 in assay [1] is 7.77; in assay [2], 7.96.
Regarding `CCC(CC)Cn1nc(-c2ccccc2)c(Cc2cc3c(cc2Cl)OCO3)c1C(=O)O`, the pIC50 in assay [1] is 7.82; in assay [2], 7.51.
Take `COc1ccc(Cn2nc(-c3cccs3)c(Cc3cc4c(cc3Cl)OCO4)c2C(=O)O)c(OCC(=O)O)c1`: the negative-log IC50 (pIC50) was 7.83 in assay [1] and 8.07 in assay [2].
With `O=C(O)c1c(Cc2cc3c(cc2Cl)OCO3)c(-c2ccco2)nn1CC1CCCCC1`, the pIC50 in assay [1] was 8.89; in assay [2], 8.01.
Turning to `O=C(O)COc1ccccc1Cn1nc(-c2ccccc2)c(Cc2cc3c(cc2Cl)OCO3)c1C(=O)O`, the pIC50 in assay [1] was 7.23; in assay [2] it was 8.48.
On the same counts, the results for `O=C(O)c1c(Cc2cc3c(cc2Cl)OCO3)c(-c2cccs2)nn1CC1CCC(C(=O)O)CC1` (stereo not drawn) are 9.09 and 6.08.
`O=C(O)COc1ccccc1Cn1nc(-c2cccs2)c(Cc2cc3c(cc2Cl)OCO3)c1C(=O)O`: the pIC50 was 7.55 in assay [1] and 8.34 in assay [2].
On to `O=C(O)c1c(Cc2cc3c(cc2Cl)OCO3)c(-c2ccccc2)nn1CC1CCCC(C(=O)O)C1` (stereo not drawn), for which the figures for the pIC50 in assay [1] and in assay [2] were 8.60 and 7.83, respectively.
On the same counts, the results for `O=C(O)c1c(Cc2cc3c(cc2Cl)OCO3)c(-c2cccs2)nn1CC1CCCCC1` are 8.96 and 8.77.
With `O=C(O)c1cc2c(c(Cn3nc(-c4ccccc4)c(Cc4cc5c(cc4Cl)OCO5)c3C(=O)O)c1)OCOC2`, the negative-log IC50 (pIC50) in assay [1] is 8.60; in assay [2] it was 7.36.
As to `O=C(O)c1cc(Cn2nc(-c3ccccc3)c(Cc3cc4c(cc3Cl)OCO4)c2C(=O)O)on1`, the pIC50 in assay [1] is 7.10; in assay [2], 6.36.
With `O=C(O)c1c(Cc2cc3c(cc2Cl)OCO3)c(-c2cccs2)nn1CC1CCCC(C(=O)O)C1` (stereo not drawn), the values for the pIC50 in assay [1] and in assay [2] were 8.89 and 8.00, respectively. Further, the Ratio in assay [3] was found to be 7.
On to `O=C(O)c1c(Cc2cc3c(cc2Cl)OCO3)c(-c2ccccc2)nn1CC1OCCO1`, for which the pIC50 in assay [1] is 7.15; in assay [2] it was 6.02.
Consider `O=C(O)c1c(Cc2cc3c(cc2Cl)OCO3)c(-c2ccccc2)nn1CC1CCC(C(=O)O)CC1` (stereo not drawn), for which the figures for the pIC50 in assay [1] and in assay [2] were 8.31 and 6.09, respectively.
With `O=C(O)c1ccc(Cn2nc(-c3ccccc3)c(Cc3cc4c(cc3Cl)OCO4)c2C(=O)O)cc1`, the pIC50 was 7.96 in assay [1] and 5.69 in assay [2].
For the molecule `O=C(O)c1c(Cc2cc3c(cc2Cl)OCO3)c(-c2cccnc2)nn1CC1CCCCC1`, the pIC50 in assay [1] is 7.75; in assay [2] it was 8.20.
`O=C(O)c1c(Cc2cc3c(cc2Cl)OCO3)c(-c2ccccn2)nn1CC1CCCCC1`: the results for the pIC50 in assay [1] and in assay [2] were 8.33 and 8.47, respectively.
In the case of `O=C(O)c1c(Cc2cc3c(cc2Cl)OCO3)c(-c2ccccc2)nn1CC1CCCCC1`, the pIC50 was 8.44 in assay [1] and 8.59 in assay [2].
Regarding `COc1cc(Cn2nc(-c3ccccc3)c(Cc3cc4c(cc3Cl)OCO4)c2C(=O)O)cc(OC)c1`, the pIC50 in assay [1] was 7.55; in assay [2], 8.01.
With `O=C(O)COC1CCCCC1Cn1nc(-c2ccccc2)c(Cc2cc3c(cc2Cl)OCO3)c1C(=O)O` (stereo not drawn), the results for the pIC50 in assay [1] and in assay [2] were 7.69 and 8.49, respectively.
In the case of `O=C(O)c1c(Cc2cc3c(cc2Cl)OCO3)c(-c2ccccc2)nn1Cc1ccc(Cl)c(Cl)c1`, the negative-log IC50 (pIC50) in assay [1] was 7.47; in assay [2] it was 7.59.
As for `COc1ccc(Cn2nc(-c3ccccc3)c(Cc3cc4c(cc3Cl)OCO4)c2C(=O)O)c(OCC(=O)O)c1`, in assay [4], the Ratio amounted to 22. Also, the pIC50 was 7.05 in assay [1] and 8.40 in assay [2].
For `O=C(O)c1c(Cc2cc3c(cc2Cl)OCO3)c(-c2ccccc2)nn1CC12CC3CC(CC(C3)C1)C2`, the pIC50 is 8.47 in assay [1] and 8.31 in assay [2].
For the molecule `O=C(O)c1c(Cc2cc3c(cc2Cl)OCO3)c(-c2ccsc2)nn1CC1CCCCC1`, the pIC50 in assay [1] was 8.96; in assay [2] it was 8.49.
`COc1ccc(-c2nn(CC3CCCCC3)c(C(=O)O)c2Cc2cc3c(cc2Cl)OCO3)cc1` gave a pIC50 in assay [2] of 6.75.
With `O=C(O)c1c(Cc2cc3c(cc2Cl)OCO3)c(-c2ccccc2)nn1C1CCCCC1`, the pIC50 in assay [1] is 6.65; in assay [2], 6.88.

Source of the values: ChEMBL document CHEMBL1133146, “Potent nonpeptide endothelin antagonists: synthesis and structure-activity relationships of pyrazole-5-carboxylic acids” (Bioorg Med Chem Lett, 2000).
